The numbers were not newly measured in patent US20090105632A1 (priority 2007, published 2009), which cites them from elsewhere.

For series [1] the following is noted: oral route, metabolized by the liver.
Another series has as its system Parkinson's disease. The following applies: lisuride administration at about 1.1 mg/day.
The conditions of series [2]: 10 mM citrate buffer at pH 5.

For the compound `CCN(CC)C(=O)N[C@H]1C=C2c3cccc4[nH]cc(c34)C[C@H]2N(C)C1` [lisuride, N′-[(8α)-9,10-didehydro-6-methylergolin-8-yl]-N,N-diethylurea], the pKa result is listed as “about 8”. Besides, in series [1], the bioavailability result is given as “about 25%”. For the same compound, the antiparkinsonian response entry with Parkinson's disease was “equal to that achieved with doses of levopoda monotherapy of 668 mg/day”. The solubility entry in series [2] is given as “about 1.8 mg/ml”.
